From patent US6677309B1, “Anti-cancer drug aldehyde conjugate drugs with enhanced cytotoxicity compounds, compositions and methods” (University Technology Corporation, priority 1997, dated 2004)
Where two headings read alike, the source gives them in different places.

Tests used:
[1] = test system: LNCaP; experiment: Prostate cancer cell cytotoxicity, crystal violet assay, LNCaP; assay type: cell-based, human; conditions: 3 h drug, 4 days growth
Description: (§1) Toxicity to the three prostate cancer cell lines, LNCaP, DU-145, and PC-3 were measured in two different media, RPMI-1640 and DMEM (Dulbecco's Modified Eagle Medium), both supplemented with 10% fetal bovine serum.
(§2) Cell lines were maintained in vitro in RPMI 1640 media or DMEM, each supplemented with 10% fetal bovine serum, 2 mM L-glutamine, 10 mM HEPES buffer, penicillin (100 units/mL) and streptomycin (100 μg/mL).
(§3) Cells were dissociated with trypsin/EDTA, counted, and suspended in growth media (RPMI or DMEM) to a concentration of 5.6×10^3 cells/mL. Cell suspensions were dispensed in 180 μL aliquots into 96-well tissue culture plates. […] Each 100× solution was diluted 10× in growth media (RPMI or DMEM), and a 20 μL aliquot of the resulting 10× solution was immediately (<10s) added to-the appropriate lane. Additionally, one lane was treated with 20 μL of 10% DMSO in growth media (no drug) and one lane was treated with 200 μL of 1.5 M Tris buffer (no cells). The cells were incubated with the drugs for 3 h at 37° C. The drug solutions were then removed and replaced with 200 μL of fresh media. The cells were incubated for 4 days (7 days for PC-3 cells in DMEM) at 37° C. in a humidified atmosphere of 5% CO2 and 95% air. Cell survival was determined using a crystal violet assay as described earlier (Fenick, D. J. et al (1997) J. Med. Chem. 40: 2452-2461).

[2] = test system: DU-145; experiment: Prostate cancer cell cytotoxicity, crystal violet assay, DU-145; assay type: cell-based, human; conditions: 3 h drug, 4 days growth
Description: as §1, §2, §3

[3] = test system: PC-3; experiment: Prostate cancer cell cytotoxicity, crystal violet assay, PC-3; assay type: cell-based, human; conditions: 3 h drug
Description: as §1, §2, §3

[4] = test system: MCF-7/ADR cells; experiment: Cytotoxicity versus time of drug hydrolysis before addition to cells; assay type: cell-based, human; conditions: 1 μmol equiv./L, 25° C., serum-free media containing 10% DMSO, MCF-7/ADR survival
Description: The results of these experiments are illustrated in FIG. 2. […] However, the dimeric formaldehyde conjugate of daunorubicin completely lost its effectiveness within 25 min of standing in an aqueous solution. […] This biphasic curve is probably due to the decay mechanism of the dimeric formaldehyde conjugate of doxorubicin to doxorubicin in aqueous solution.
The drug solution was diluted 1:100 with DMSO, then 1:10 in serum-free RPMI media 1640. A volume of 20 μL of the resulting 0.5 μM (1 μmol equiv/L) drug solution was immediately added to the t=0 min lane. The remaining lanes were treated at 5 min intervals with 20 μL of the remaining drug solution, which was held at 25° C. between additions. Additionally, one lane was treated with 20 μL/well of serum-free RPMI media containing 10% DMSO (no drug) and one lane replaced with 200 μL/well of 1.5 M Tris buffer (no cells). Each lane was incubated at 37° C. for 3 h.

[5] = amorphous material
[6] = Hydrolysis in aqueous phosphate buffer, HPLC; assay type: physicochemical
Description: See Example 16. […] The DMSO was present to increase solubility.
Second, the kinetics of hydrolysis were measured in pH 6.0 phosphate buffer.
A 960 μL solution of pH 7.3 phosphate buffer was heated to 37° C. […] No change in the chromatography was observed if pH, 7.3 phosphate buffer was used as the eluent in place of pH 7.4 TEAA buffer.

[7] = Hydrolysis in fetal bovine serum, HPLC; assay type: in vitro ADME; conditions: pH 8.1, in serum at 37° C., read-out: half-life of the equilibrium mixture with intermediate B with respect to formation of intermediates C and D

| SMILES | IC50 ([1]; DMEM with 10% fetal bovine serum, read-out: IC50 Values, LNCaP/DMEM (converted)) [nM] | IC50 ([1]; RPMI-1640 with 10% fetal bovine serum, read-out: IC50 Values, LNCaP/RPMI-1640 (converted)) [nM] | IC50 ([2]; DMEM with 10% fetal bovine serum, read-out: IC50 Values, DU-145/DMEM (converted)) [nM] | IC50 ([2]; RPMI-1640 with 10% fetal bovine serum, read-out: IC50 Values, DU-145/RPMI-1640 (converted)) [nM] | IC50 ([3]; DMEM with 10% fetal bovine serum, 7 days growth, read-out: IC50 Values, PC-3/DMEM (converted)) [nM] | IC50 ([3]; RPMI-1640 with 10% fetal bovine serum, 4 days growth, read-out: IC50 Values, PC-3/RPMI-1640 (converted)) [nM] | time of standing in an aqueous solution until effectiveness completely lost [4] [min] | concentration to which the material dissolved instantly in dimethylsulfoxide [5] [mg/mL] | half-life at 25 µM ([6]; pH 6.0 phosphate buffer, 37° C.) [min] | time the equilibrium mixture is stable ([6]; pH 7.3, at equilibrium) | half-life ([6]; pH 7.3 phosphate buffer, 37° C., read-out: half-life of hydrolysis, forward reaction (A⇄B) to C+D (converted)) [min] | half-life at 25 µM [7] [min] |
| --- | --- | --- | --- | --- | --- | --- | --- | --- | --- | --- | --- | --- |
| COc1cccc2c1C(=O)c1c(O)c3c(c(O)c1C2=O)C[C@@](O)(C(C)=O)C[C@@H]3O[C@H]1C[C@H]2[C@H](OCN2CN2CO[C@@H]3[C@H](C)O[C@@H](O[C@H]4C[C@](O)(C(C)=O)Cc5c(O)c6c(c(O)c54)C(=O)c4c(OC)cccc4C6=O)C[C@@H]32)[C@H](C)O1 [DAUNF, bis(3′-N-(3′-N,4′-O-methylenedaunorubicinyl))methane] | 1.5 | 3 | 4 | 5 | 0.5 | 2.5 | ≤ 25 | ≥ 20 |  |  |  |  |
| COc1cccc2c1C(=O)c1c(O)c3c(c(O)c1C2=O)CC(O)(C(=O)CO)CC3OC1CC2C(OCN3CN2COC2C(C)OC(OC4C[C@](O)(C(=O)CO)Cc5c(O)c6c(c(O)c54)C(=O)c4c(OC)cccc4C6=O)CC23)C(C)O1 (stereo partly drawn) [EPIF] |  |  |  |  |  |  |  |  | 15 | at least 2 days | ~120 | ≥ 120 |
